Assay results published in patent US20090098072A1, “ANTIOXIDANTS” (priority 2006, published 2009).

Test: Photoconversion test (absorption at 300 nm after solar simulator irradiation)
Format: physicochemical
Method: A 4% solution of the substance in isopropyl myristate is prepared. In each case, 40 μl of the solution are applied to the roughened surface of 2 acrylic glass plates (7.2×2.5 cm). One plate is subsequently irradiated in a solar simulator (Atlas CPS+) for 1 h 50 min with cooling. The sample is subsequently transferred into a 50 ml measuring cylinder and covered with 40 ml of isopropanol for extraction in the ultrasound bath. The sample volume is subsequently made up to precisely 50 ml, and the absorption is measured at 300 nm. An unirradiated batch treated analogously serves as comparison. The absorption can be increased by 22% from 0.094 (dark batch) to 0.115 by the irradiation step.

- absorption at 300 nm, unirradiated (dark batch) (4% solution in isopropyl myristate, 40 μl on acrylic glass plate, extracted with isopropanol to 50 ml, not irradiated): 0.094
- absorption at 300 nm after irradiation (4% solution in isopropyl myristate, 40 μl on acrylic glass plate, solar simulator (Atlas CPS+) 1 h 50 min, extracted with isopropanol to 50 ml): 0.115
- increase of absorption at 300 nm by the irradiation step (irradiated 1 h 50 min vs dark batch): 22%
SMILES: Cc1ccc(CC2C(=O)C3(C)CCC2C3(C)C)cc1 (stereo not drawn) [Example 1, 1,7,7-trimethyl-3-(4-methylbenzyl)-bicyclo-[2.2.1]heptan-2-one]
